The source made the active and inactive calls.
Key:
HeLa = test: HeLa cell cytotoxicity, dose response, cytotoxicity control, ATP luminescence, cherry-pick samples (AID 687004); format: functional, cell-based; settings: Homo sapiens
cells [1] = format: functional, cell-based
[2] = molecular target: Nuclear receptor subfamily 0 group B member 1 (Homo sapiens, UniProt P51843); format: functional, cell-based;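 also: HEK293T cells transfected with SF-1 and DAX-1 plus StAR promoter luciferase reporter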
Nuclear receptor subfamily 0 group B member 1, sequence (P51843 whole entry): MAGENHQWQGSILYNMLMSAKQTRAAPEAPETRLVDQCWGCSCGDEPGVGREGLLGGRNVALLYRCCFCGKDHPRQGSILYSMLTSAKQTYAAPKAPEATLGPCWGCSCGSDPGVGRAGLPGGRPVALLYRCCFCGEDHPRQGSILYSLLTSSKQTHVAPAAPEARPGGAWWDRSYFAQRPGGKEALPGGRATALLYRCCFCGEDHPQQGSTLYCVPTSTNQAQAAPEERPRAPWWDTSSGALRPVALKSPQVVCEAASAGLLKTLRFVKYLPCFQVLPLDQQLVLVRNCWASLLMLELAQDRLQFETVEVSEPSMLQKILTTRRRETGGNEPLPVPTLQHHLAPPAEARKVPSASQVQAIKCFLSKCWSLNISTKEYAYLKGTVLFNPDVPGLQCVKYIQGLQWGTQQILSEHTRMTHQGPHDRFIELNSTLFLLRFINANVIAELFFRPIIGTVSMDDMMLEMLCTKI

[3] = molecular target: Endoplasmic reticulum aminopeptidase 1 (Homo sapiens, UniProt Q9NZ08); test: ERAP1 aminopeptidase inhibitors, dose response, biochemical, cherry-pick, set 2, plate reader (AID 743314)
Endoplasmic reticulum aminopeptidase 1, sequence (Q9NZ08 whole entry): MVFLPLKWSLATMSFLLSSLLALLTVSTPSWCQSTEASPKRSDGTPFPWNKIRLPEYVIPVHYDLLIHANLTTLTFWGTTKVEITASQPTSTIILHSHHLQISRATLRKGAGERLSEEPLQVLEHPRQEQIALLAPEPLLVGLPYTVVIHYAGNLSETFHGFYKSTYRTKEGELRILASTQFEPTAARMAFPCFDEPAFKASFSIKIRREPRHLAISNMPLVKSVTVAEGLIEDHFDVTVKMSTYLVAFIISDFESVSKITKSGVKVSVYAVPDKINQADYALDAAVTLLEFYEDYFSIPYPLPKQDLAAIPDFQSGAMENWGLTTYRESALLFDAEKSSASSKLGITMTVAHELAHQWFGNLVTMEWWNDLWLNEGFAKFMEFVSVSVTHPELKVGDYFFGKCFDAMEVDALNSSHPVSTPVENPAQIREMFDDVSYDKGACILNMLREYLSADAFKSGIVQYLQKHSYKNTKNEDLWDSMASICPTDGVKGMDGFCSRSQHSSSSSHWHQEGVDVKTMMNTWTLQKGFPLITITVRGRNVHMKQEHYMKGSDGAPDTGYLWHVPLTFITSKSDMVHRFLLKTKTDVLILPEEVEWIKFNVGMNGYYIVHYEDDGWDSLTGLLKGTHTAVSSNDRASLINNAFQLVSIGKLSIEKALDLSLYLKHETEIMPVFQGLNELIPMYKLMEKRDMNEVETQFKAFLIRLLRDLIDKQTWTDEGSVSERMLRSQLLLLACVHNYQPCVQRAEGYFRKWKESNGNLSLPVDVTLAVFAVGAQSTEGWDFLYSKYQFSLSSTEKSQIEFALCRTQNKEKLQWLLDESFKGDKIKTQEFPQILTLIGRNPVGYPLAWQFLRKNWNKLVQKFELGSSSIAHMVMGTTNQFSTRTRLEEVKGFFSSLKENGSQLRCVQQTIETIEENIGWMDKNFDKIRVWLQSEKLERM

[4] = A Cell-Based Confirmatory Screen for Compounds that Inhibit VEEV, TC-83 (6).; format: functional
[5] = A Cell-Based Confirmatory Screen for Compounds that Inhibit VEEV, TC-83 (8).; format: functional
[6] = Late stage assay provider results from the probe development effort to identify inhibitors of the Plasmodium falciparum M17 Leucine Aminopeptidase (M17LAP): radiolabel-based cell-based dose response assay to identify compounds that inhibit P. falciparum growth in RBCs Set 2.; format: functional
[7] = cytotoxicity in OVCAR8 ovarian cancer cells, dose response, PAX8 project, cell-based, plate reader, dry powder samples (AID 743197); format: functional; settings: OVCAR-8
Paired box protein Pax-8 = Paired box protein Pax-8 (Homo sapiens, UniProt Q06710); test: inhibitors of PAX8-driven TPO luciferase reporter, dose response, RMG-I cells, cherry-pick (AID 687027); format: functional, cell-based;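 also: luciferase reporter driven by Pax8 target thyroperoxidase promoter measured by SteadyGlo luminescence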
Paired box protein Pax-8, sequence (Q06710 whole entry): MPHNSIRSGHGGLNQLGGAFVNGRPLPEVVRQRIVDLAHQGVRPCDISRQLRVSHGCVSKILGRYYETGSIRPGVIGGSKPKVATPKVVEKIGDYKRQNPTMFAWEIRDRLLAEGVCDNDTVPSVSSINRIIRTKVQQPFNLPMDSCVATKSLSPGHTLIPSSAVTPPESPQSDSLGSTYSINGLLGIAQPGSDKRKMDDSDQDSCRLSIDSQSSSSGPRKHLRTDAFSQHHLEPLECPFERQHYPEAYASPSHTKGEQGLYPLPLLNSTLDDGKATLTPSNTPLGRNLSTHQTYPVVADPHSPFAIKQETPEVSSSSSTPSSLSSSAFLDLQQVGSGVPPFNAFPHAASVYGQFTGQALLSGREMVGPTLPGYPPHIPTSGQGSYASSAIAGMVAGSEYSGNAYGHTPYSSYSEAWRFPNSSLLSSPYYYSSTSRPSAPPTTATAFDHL

[8] = HEK293T cytotoxicity, dose response, cytotoxicity control for miR-122 modulator project, cell-based, inhibitor set, cherry-pick, set 2 (AID 720697); format: functional
[9] = IGROV1 ovarian cancer cell cytotoxicity, dose response, PAX8 inhibitor project, plate reader, dry powder samples (AID 743043); format: functional, cell-based; settings: IGROV-1
[10] = HEK293T cytotoxicity, dose response, cytotoxicity control for miR-122 modulator project, cell-based, activator set, cherry-pick (AID 720690); format: functional;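 also: HEK293T human cells scored for general mammalian cytotoxicity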
[11] = miR-122 activators in hepatoma reporter cells, dose response, cell-based, Huh7 psiCHECK-miR122, Renilla luciferase, cherry-picked (AID 651956); format: functional;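 also: huh7 hepatoma cells stably carrying a psiCHECK-2 miR-122 sensor plasmid; renilla luciferase signal reporting endogenous miR-122 activity after 48 h compound exposure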
[12] = molecular target: Potassium channel subfamily K member 9 (Homo sapiens, UniProt Q9NPC2); test: TASK3 (KCNK9) channel inhibitors, thallium flux, SAR follow-up, selectivity assay for TASK1 inhibitor project, cell-based, FluxOR thallium flux, concentration-response (AID 652211); format: functional;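 also: potency is for inhibitors of the channel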
Potassium channel subfamily K member 9, sequence (Q9NPC2 whole entry): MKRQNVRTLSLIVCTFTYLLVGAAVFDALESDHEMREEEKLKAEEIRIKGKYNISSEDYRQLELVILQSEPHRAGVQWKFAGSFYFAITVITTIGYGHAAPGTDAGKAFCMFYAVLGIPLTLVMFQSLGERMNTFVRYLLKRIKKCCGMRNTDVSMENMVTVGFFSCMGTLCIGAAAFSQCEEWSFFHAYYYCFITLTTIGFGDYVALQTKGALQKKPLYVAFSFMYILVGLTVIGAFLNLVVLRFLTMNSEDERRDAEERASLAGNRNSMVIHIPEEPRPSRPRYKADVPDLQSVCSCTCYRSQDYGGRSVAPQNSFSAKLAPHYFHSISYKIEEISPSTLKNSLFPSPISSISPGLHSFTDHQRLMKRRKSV

[13] = cytotoxicity in HEK-293T cells, dose response, cytotoxicity control for TCR NF-kB inhibitor project, luminescence, T-cell screen hits (AID 489026); format: functional, cell-based;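 also: cells exposed to compound about 14 hours before the viability readout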
[14] = Counterscreen for activators of the function of SWI/SNF related, matrix associated, actin dependent regulator of chromatin, subfamily a, member 2 (SMARCA2, BRM): Luminescence-based cell-based high throughput dose response assay to identify non-selective compounds using the VP16 reporter assay.; format: functional
[15] = inhibitors of intracellular T. cruzi replication, confirmation, NIH3T3 host cells, beta-gal luminescence (AID 2044); format: functional, cell-based;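 also: intracellular parasites grown in NIH/3T3 mouse fibroblasts as host cells; luminescent beta-galactosidase reporter signal from transgenic T. cruzi replicating inside host cells; inhibitors lower the luminescence signal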
cells [16] = test: cells
[17] = cytotoxicity toward NIH3T3 fibroblasts, dose response, counter-screen, cell-based, ATP luminescence, mouse fibroblasts (AID 2010); format: functional;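 also: cells exposed to compound for about 90 hours before reading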

With `CNC(=O)C[C@H]1CC[C@H]2[C@@H](COc3ccc(NC(=O)Nc4cccc(C#N)c4)cc3C(=O)N2C)O1` the AC50 (HeLa) was 27.2 µM (active).
For `CS(=O)(=O)c1cccc(C(=O)Nc2ccc(-c3nc4ccccc4[nH]3)cc2)c1`, the IC50 (cells [1]) was > 67.5 µM (inactive) and the IC50 [2] was > 67.5 µM (inactive).
In the case of `Cc1c(C)c2ccc(O)c(CN3CCCC3)c2oc1=O`, the AC50 [3] is reported as 7.31 µM (active).
With `COc1ccc(-n2c(CN3CCNCC3)nc3ccc([N+](=O)[O-])cc3c2=O)cc1` the IC50 [4] was < 0.22 µM (active) and the IC50 [5] was < 0.218 µM (active).
With `CCCCOc1ccc(C(=O)NO)cc1` the IC50 [6] was 11.3 µM (inactive).
In the case of `COc1ccc(CN(C)C[C@H]2OCCCC[C@H](C)Oc3ccc(NC(=O)Nc4ccc(C(F)(F)F)cc4)cc3C(=O)N([C@@H](C)CO)C[C@@H]2C)cc1`, the AC50 [7] is reported as > 70 µM (inactive), the AC50 (Paired box protein Pax-8) is reported as 8.38 µM (active) and the AC50 [8] is reported as 11.3 µM (active). The AC50 [9] was 53.8 µM (active), the AC50 [10] was 18.3 µM (active) and the AC50 [11] was 6.4 µM (active).
For `Cc1cccc(C(=O)Nc2cccc(NC(=O)c3cccc(Cl)c3)c2)c1`, the IC50 [12] was 13.4 µM (active).
For `Nc1nc(O)c2[nH]nnc2n1` [8-AZAGUANINE], the IC50 [13] was > 80 µM (inactive), the EC50 [14] was > 91.2 µM (inactive) and the EC50 [15] was < 0.1 µM (active). For the same compound, the EC50 (cells [16]) was 0.153 µM (active) and the EC50 [17] was 10.3 µM (active).

From ChEMBL document CHEMBL1201862, “PubChem BioAssay data set” (2004)
